Measurements published in PubChem BioAssay (NCI).
Several values for one entry are separate records, joined by “and”; a condition that tells them apart may be missing. Identical values can stand only once.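 Following 48 hours of exposure in 96-well plates, responses at five concentrations were used to interpolate endpoints linearly. Here, GI50 denotes the concentration required for 50% inhibition of growth. TGI marks complete inhibition of growth.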

How the values were obtained:
Assay in all cases: DTP human tumour cell line panel, 48 h
KM20L2 colon = tested on: KM20L2 colon
DMS 273 small cell lung = tested on: DMS 273 small cell lung
SNB-78 CNS = tested on: SNB-78 CNS
M19-MEL melanoma = tested on: M19-MEL melanoma
UACC-62 melanoma = tested on: UACC-62 melanoma
HOP-18 NSCLC = tested on: HOP-18 NSCLC
DMS 114 small cell lung = tested on: DMS 114 small cell lung
BT-549 breast = tested on: BT-549 breast
T-47D breast = tested on: T-47D breast
MCF7 breast = tested on: MCF7 breast
PC-3 prostate = tested on: PC-3 prostate
MDA-MB-435 = tested on: MDA-MB-435

| SMILES | TGI (KM20L2 colon) [µM] | TGI (DMS 273 small cell lung) [µM] | TGI (SNB-78 CNS) [µM] | TGI (M19-MEL melanoma) [µM] | TGI (UACC-62 melanoma) | TGI (HOP-18 NSCLC) [µM] | TGI (DMS 114 small cell lung) [µM] | further results |
| --- | --- | --- | --- | --- | --- | --- | --- | --- |
| CC(=O)OC1C(COC(N)=O)OC(n2c(-c3ccc(C)cc3)cc(-c3ccccc3)c(C#N)c2=O)C(OC(C)=O)C1OC(C)=O (stereo unspecified) | > 100 | > 100 | > 100 | > 100 | > 100 µM | > 100 |  |  |
| CN(CC(=O)O)S(=O)(=O)c1ccc(Cl)cc1 | > 100 | > 100 |  | > 100 | > 100 µM | > 100 |  |  |
| Cc1ccc(S(=O)OC2c3ccccc3Cc3ccccc32)cc1 (stereo unspecified) | 47.2 | 33 | 46.1 | 40.8 | 31.8 µM | 59.4 | 34.8 |  |
| COC(=O)C(=O)C(C(=O)C(=O)Nc1ccccc1C(N)=O)c1nc2ccc([N+](=O)[O-])cc2[nH]c1=O (stereo unspecified) | > 100 | > 100 | > 100 | > 100 | > 100 µM | > 100 |  |  |
| S=C1NC(c2ccccc2)=NC(Cc2ccccc2)(c2ccccc2)N1c1ccccc1 (stereo unspecified) | > 100 |  | > 100 | > 100 | > 100 µM | > 100 | > 100 |  |
| COc1cc(/C=C(\C)c2ccc3c(c2)OCO3)cc(OC)c1OC | > 100 | 96.3 | > 100 | > 100 |  | > 100 | 87 |  |
| Cc1ccc(C)c(N2C(=O)C(=O)C(c3nc4ccccc4s3)C(=O)C2=O)c1 | > 100 | > 100 | > 100 | > 100 | > 100 µM |  | > 100 |  |
| O=C1C2=C(c3ccccc31)C(c1ccccc1Cl)NC(=S)N2 (stereo unspecified) | > 100 | > 100 |  | > 100 | > 100 µM |  |  |  |
| N#CCC(=O)N/N=C(/C(=O)Nc1ccccc1)C1C(=O)N(c2ccccc2)N=C1N (stereo unspecified) | > 100 | > 100 | > 100 | > 100 | > 100 µM | > 100 | > 100 |  |
| Cc1cc2c(=O)cc(-c3ccc(O)cc3)oc2c(C(=O)O)c1C | > 100 | > 100 | > 100 | > 100 | > 100 µM | > 100 | > 100 |  |
| Cc1ccccc1C(C#N)/C(=N/NC(N)=S)C(=O)Nc1c(C)cccc1C (stereo unspecified) | > 100 |  | > 100 | > 100 | > 100 µM | > 100 | > 100 |  |
| Cn1cnc([N+](=O)[O-])c1Sc1nccn1-c1ccccc1 | > 100 | > 100 | > 100 | > 100 | > 100 µM | 54.3 | 91.2 |  |
| COC1OC(CO)C(O)C(NC(=O)N(C)N=O)C1O (stereo unspecified) | > 100 | > 100 | > 100 | > 100 |  | > 100 | > 100 |  |
| CN1C(=O)CNS1(=O)=O |  | > 100 | > 100 |  | > 100 µM |  | > 100 |  |
| CCOc1ccc(N=C2NC(=O)C(CC(=O)Nc3ccc(Cl)cc3Cl)S2)cc1 (stereo unspecified) | > 100 | > 100 | > 100 | > 100 | > 100 µM |  | > 100 |  |
| CC[C@H]1[C@@H](C)C=C[C@@H](C)N1S(=O)(=O)c1ccc(C)cc1 | > 100 | > 100 | > 100 | > 100 | > 100 µM |  | 34.9 |  |
| O=C(Cc1c(C(=O)Nc2ccccc2)sc(C(=O)Nc2ccccc2)c1CC(=O)Nc1ccccc1)Nc1ccccc1 | > 100 | > 100 | > 100 | > 100 | > 100 µM | > 100 | > 100 |  |
| CC1OC(n2ccc3ccc([N+](=O)[O-])cc32)C(O)C(O)C1O (stereo unspecified) | > 100 | > 100 | > 100 | > 100 | > 100 µM |  | > 100 |  |
| CC[C@@]1(O)C(=O)OCc2c1cc1n(c2=O)Cc2cc3c(OC)cccc3nc2-1 | > 23.6 | 1.14 |  | 0.643 | 0.0456 µM and 0.106 µM | > 100 | 0.28 | TGI (BT-549 breast): > 39.8 µM; GI50 (UACC-62 melanoma): 0.00262 µM; GI50 (T-47D breast): > 100 µM; TGI (T-47D breast): > 100 µM; TGI (MCF7 breast): > 100 µM; TGI (PC-3 prostate): > 100 µM |
| C=CCC1=C2CCCCC2CCC1=O (stereo unspecified) |  | > 100 | > 100 | > 100 | > 100 µM |  | > 100 |  |

| SMILES | TGI (KM20L2 colon) [µM] | TGI (DMS 273 small cell lung) [µM] | TGI (SNB-78 CNS) [µM] | TGI (M19-MEL melanoma) [µM] | TGI (UACC-62 melanoma) | TGI (HOP-18 NSCLC) [µM] | TGI (DMS 114 small cell lung) [µM] | further results |
| --- | --- | --- | --- | --- | --- | --- | --- | --- |
| OCC(O)COc1ccc(F)cc1 (stereo unspecified) | > 100 | > 100 | > 100 | > 100 | > 100 µM | > 100 | > 100 |  |
| Cc1cc2c(=O)cc(-c3ccc(Cl)cc3Cl)oc2c(C(=O)O)c1C | > 100 |  | > 100 |  | > 100 µM | > 100 | > 100 |  |
| CC1=CC=C2C(C)(C)CC[C@@H]3OC(=O)[C@H]1[C@]23C | > 100 | > 100 | > 100 | > 100 | > 100 µM | > 100 | > 100 |  |
| NC(=S)N/N=C/c1cn(CCCl)c2ccccc12 |  |  | > 100 | > 100 | > 100 µM | > 100 | > 100 |  |
| COC(=O)c1oc([N+](=O)[O-])c(-c2ccccc2)c1-c1ccccc1 | > 100 | > 100 | > 100 | > 100 | > 100 µM | > 100 | > 100 |  |
| CCCCN(CCCC)C(=O)C(=O)C(C(=O)C(=O)OC)c1nc2ccccc2o1 (stereo unspecified) |  | > 100 | > 100 | > 100 |  | > 100 | > 100 |  |
| O=C(O)COc1ccc2c3c1C(=O)CCC3CO2 (stereo unspecified) | > 100 | > 100 | > 100 | > 100 | > 100 µM | > 100 | > 100 |  |
| Cc1cc2c(=O)cc(-c3ccc(C(=O)O)cc3)oc2c(C(N)=O)c1C | > 100 | > 100 | > 100 | > 100 | > 100 µM |  | > 100 |  |
| O=[N+]([O-])c1cccc(C=NC23CC4CC(CC(C4)C2)C3)c1 | > 100 | > 100 | > 100 | > 100 | > 100 µM | > 100 | > 100 |  |
| COC(=O)CCC(=O)C(CC(=O)OC)C(=O)CCC(=O)NCCc1ccccc1 (stereo unspecified) | > 100 | > 100 | > 100 |  | > 100 µM | > 100 |  |  |
| CCOC(=O)c1sc(Nc2cc(Cl)ccc2Cl)nc1C | > 100 |  | > 100 | > 100 |  | > 100 | > 100 |  |
| CC(=O)Nc1ccc(S(=O)(=O)N/N=C/c2cc(I)cc([N+](=O)[O-])c2O)cc1 | > 100 | > 100 | > 100 | > 100 | 90.9 µM | 96.5 | > 100 |  |
| CNC(=O)N(CCCC(NC(C)=O)C(=O)NCc1ccccc1)Cc1ccccc1 (stereo unspecified) | > 100 | > 100 | > 100 | > 100 | > 100 µM |  | > 100 |  |
| O=C([CH-]C(=O)c1ccccc1)c1ccccc1.O=C([CH-]C(=O)c1ccccc1)c1ccccc1.[CH2-]CCC.[CH2-]CCC.[Sn+4] | 3.11 |  |  |  | 1.83 µM |  |  | GI50 (KM20L2 colon): 1.57 µM; GI50 (UACC-62 melanoma): 0.558 µM |
| CC(=O)NS(=O)(=O)c1ccc(-n2nc(-c3ccccc3)cc2-c2cc(O)ccc2O)cc1 |  |  |  |  | > 100 µM |  |  | GI50 (MDA-MB-435): > 100 µM; TGI (MDA-MB-435): > 100 µM; GI50 (BT-549 breast): > 100 µM; TGI (BT-549 breast): > 100 µM; GI50 (UACC-62 melanoma): 62 µM; GI50 (T-47D breast): > 100 µM; TGI (T-47D breast): > 100 µM; GI50 (MCF7 breast): > 100 µM; TGI (MCF7 breast): > 100 µM; GI50 (PC-3 prostate): > 100 µM; TGI (PC-3 prostate): > 100 µM |
| COc1cc(C)cc(C(=O)OCc2ccccc2)c1C1=C(Cl)C(=O)C(Cl)=CC1=O |  |  |  |  | > 10 µM |  |  | TGI (MDA-MB-435): > 10 µM; TGI (BT-549 breast): > 10 µM; TGI (T-47D breast): > 10 µM; TGI (MCF7 breast): > 10 µM; TGI (PC-3 prostate): > 10 µM |
| c1ccc2c(CNCCCN3CCN(CCCNCc4cccc5ccccc45)CC3)cccc2c1 | 3.18 | 3.43 | 4.59 | 3.37 | 3.26 µM | 18.7 | 3.46 |  |
| CCOC(=O)Nc1ccc2c3c(cccc13)-c1ccccc1-2 |  |  |  |  | > 100 µM |  |  | GI50 (MDA-MB-435): 0.862 µM; TGI (MDA-MB-435): 3.54 µM; GI50 (BT-549 breast): > 100 µM; TGI (BT-549 breast): > 100 µM; GI50 (UACC-62 melanoma): 3.71 µM; GI50 (T-47D breast): 2.57 µM; TGI (T-47D breast): > 100 µM; GI50 (MCF7 breast): 1.64 µM; TGI (MCF7 breast): > 100 µM; GI50 (PC-3 prostate): 9.45 µM; TGI (PC-3 prostate): > 100 µM |
| COc1ccc(C(=O)O[C@@H]2CCN3CC[C@H](C)[C@H]23)cc1 |  |  |  |  | > 100 µM |  |  | TGI (MDA-MB-435): > 100 µM; TGI (BT-549 breast): > 100 µM; TGI (T-47D breast): > 100 µM; TGI (MCF7 breast): > 100 µM; TGI (PC-3 prostate): > 100 µM |
